Holding throughout (assay type): functional, cell-based
Series [1] has as its target T1, ATP-dependent translocase ABCB1 (Mus musculus, UniProt P21447). In words: TP_TRANSPORTER: inhibition of Vinblastine efflux (Vinblastine: 0.002 uM, YM17K: 100 uM) in P388/S and P388/ADR cells.
Series [2] concerns the target T1, ATP-dependent translocase ABCB1. In words: TP_TRANSPORTER: inhibition of Cyclosporin A efflux (CsA: 0.005 uM, YM17K: 100 uM) in P388/S and P388/ADR cells.
The target is the same in series [3]. In words: TP_TRANSPORTER: inhibition of Vinblastine efflux (Vinblastine: 0.002 uM, Josamycin: 100 uM) in P388/S and P388/ADR cells.
Series [4] shares this target. In words: TP_TRANSPORTER: inhibition of Cyclosporin A efflux (CsA: 0.005 uM, Josamycin: 100 uM) in P388/S and P388/ADR cells.
The target is the same in series [5]. In words: TP_TRANSPORTER: intracellular accumulation in P388/S and P388/ADR cells.
For series [6] the target is unchanged. In words: TP_TRANSPORTER: inhibition of Vinblastine efflux (Vinblastine: 0.002 uM, FK-506: 10 uM) in P388/S and P388/ADR cells.
For series [7] the target is unchanged. In words: TP_TRANSPORTER: inhibition of Vinblastine efflux (Vinblastine: 0.002 uM, Clarithromycin: 100 uM) in P388/S and P388/ADR cells.
The target is the same in series [8]. In words: TP_TRANSPORTER: inhibition of Cyclosporin A efflux (CsA: 0.005 uM, Clarithromycin: 100 uM) in P388/S and P388/ADR cells.

The structures appear in SMILES notation.

T1 sequence (P21447 whole entry): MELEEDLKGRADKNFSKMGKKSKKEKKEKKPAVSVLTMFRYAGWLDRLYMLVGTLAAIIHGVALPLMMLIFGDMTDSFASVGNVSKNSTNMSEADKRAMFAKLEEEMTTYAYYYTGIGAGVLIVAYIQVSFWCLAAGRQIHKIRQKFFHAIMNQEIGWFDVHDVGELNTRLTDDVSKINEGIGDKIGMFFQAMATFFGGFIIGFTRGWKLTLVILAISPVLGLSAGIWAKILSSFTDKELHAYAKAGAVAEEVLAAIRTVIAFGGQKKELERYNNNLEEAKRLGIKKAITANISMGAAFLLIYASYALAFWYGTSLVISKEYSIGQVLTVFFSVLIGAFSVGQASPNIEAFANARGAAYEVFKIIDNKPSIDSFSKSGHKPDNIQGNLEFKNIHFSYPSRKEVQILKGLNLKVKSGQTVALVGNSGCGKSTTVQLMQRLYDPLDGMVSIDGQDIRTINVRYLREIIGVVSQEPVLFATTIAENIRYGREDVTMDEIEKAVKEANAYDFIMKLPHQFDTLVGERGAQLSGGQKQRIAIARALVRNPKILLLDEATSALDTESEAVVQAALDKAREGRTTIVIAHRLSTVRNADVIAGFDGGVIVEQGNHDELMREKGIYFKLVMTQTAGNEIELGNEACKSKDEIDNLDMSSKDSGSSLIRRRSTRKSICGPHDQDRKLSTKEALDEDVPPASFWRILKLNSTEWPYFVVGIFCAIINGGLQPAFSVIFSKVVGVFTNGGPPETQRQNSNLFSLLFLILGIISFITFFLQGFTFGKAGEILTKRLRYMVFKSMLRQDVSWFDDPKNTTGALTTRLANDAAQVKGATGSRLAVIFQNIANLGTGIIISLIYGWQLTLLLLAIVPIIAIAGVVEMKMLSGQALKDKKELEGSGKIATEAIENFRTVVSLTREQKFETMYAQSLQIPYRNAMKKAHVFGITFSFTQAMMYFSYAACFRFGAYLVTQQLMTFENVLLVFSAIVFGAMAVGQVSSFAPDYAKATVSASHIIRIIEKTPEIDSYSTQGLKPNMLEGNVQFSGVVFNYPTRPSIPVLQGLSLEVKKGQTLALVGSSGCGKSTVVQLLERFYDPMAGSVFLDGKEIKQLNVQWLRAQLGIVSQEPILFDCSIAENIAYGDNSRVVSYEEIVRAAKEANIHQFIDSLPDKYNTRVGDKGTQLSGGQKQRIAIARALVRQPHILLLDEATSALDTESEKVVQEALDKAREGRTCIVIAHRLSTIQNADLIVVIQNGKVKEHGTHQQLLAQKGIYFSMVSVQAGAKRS

In the case of `CC[C@H]1OC(=O)CC[C@H](C)C(O[C@@H]2O[C@H](C)C[C@H](N(C)C)[C@H]2O)[C@@H](CC=O)C[C@@H](C)C(=O)/C=C/C(C)=C/[C@@H]1CO` (stereo partly drawn), the figures for the Activity entry in series [1] and in series [2] were “inhibitor [(at a rough estimate) 200 % of control]” and “inhibitor [(at a rough estimate) 710 % of control]”, respectively.
Consider `CO[C@@H]1[C@@H](O[C@@H]2O[C@H](C)[C@@H](O[C@H]3C[C@@](C)(O)[C@@H](OC(=O)CC(C)C)[C@H](C)O3)[C@H](N(C)C)[C@H]2O)[C@@H](CC=O)C[C@@H](C)[C@@H](O)/C=C/C=C/C[C@@H](C)OC(=O)C[C@H]1OC(C)=O` [JOSAMYCIN], for which the figures for the Activity entry in series [3] and in series [4] were “inhibitor [(at a rough estimate) 180 % of control]” and “inhibitor [(at a rough estimate) 710 % of control]”, respectively.
As to `CC[C@]1(O)C[C@@H]2CN(CCc3c([nH]c4ccccc34)[C@@](C(=O)OC)(c3cc4c(cc3OC)N(C)[C@H]3[C@@](O)(C(=O)OC)[C@H](OC(C)=O)[C@]5(CC)C=CCN6CC[C@]43[C@@H]65)C2)C1` [VINBLASTINE], in series [5], the Activity entry was “substrate [+]”.
For the molecule `C=CC[C@@H]1/C=C(\C)C[C@H](C)C[C@H](OC)[C@H]2O[C@@](O)(C(=O)C(=O)N3CCCC[C@H]3C(=O)O[C@H](/C(C)=C/[C@@H]3CC[C@@H](O)[C@H](OC)C3)[C@H](C)[C@@H](O)CC1=O)[C@H](C)C[C@@H]2OC` [TACROLIMUS ANHYDROUS], the Activity entry in series [6] is “inhibitor [(at a rough estimate) 230 % of control]”.
As to `CC[C@H]1OC(=O)[C@H](C)[C@@H](O[C@H]2C[C@@](C)(OC)[C@@H](O)[C@H](C)O2)[C@H](C)[C@@H](O[C@@H]2O[C@H](C)C[C@H](N(C)C)[C@H]2O)[C@](C)(OC)C[C@@H](C)C(=O)[C@H](C)[C@@H](O)[C@]1(C)O` [CLARITHROMYCIN], the Activity result in series [7] is “inhibitor [(at a rough estimate) 250 % of control]”; in series [8] it was “inhibitor [(at a rough estimate) 820 % of control]”.

The record behind these values is ChEMBL document CHEMBL2073923, “Reversal of anticancer drug resistance by macrolide antibiotics in vitro and in vivo” (Clin Exp Pharmacol Physiol, 2000).
